Measured values from ChEMBL document CHEMBL2424604, “Design, synthesis and QSAR studies of dispiroindole derivatives as new antiproliferative agents” (Eur J Med Chem, 2013).

Legend:
Type in all cases: functional, cell-based
[1] = test system: PC-3; assay: Cytotoxicity against human PC3 cells after 48 hrs by SRB assay; conditions: PC-3, 48 h
[2] = test system: HepG2; assay: Cytotoxicity against human HepG2 cells after 48 hrs by SRB assay; conditions: HepG2, 48 h
[3] = test system: HeLa; assay: Cytotoxicity against human HeLa cells after 48 hrs by SRB assay

Row | Compound | IC50 [1] | IC50 [2] | IC50 [3]
1 | CN1C[C@@H](c2cccs2)[C@@]2(CCC/C(=C\c3cccs3)C2=O)[C@@]12C(=O)N(CN1CCOCC1)c1ccccc12 | 30.1 µM | 30 µM | 27.4 µM
2 | Cc1ccc(/C=C2\CCC[C@]3(C2=O)[C@H](c2ccc(C)o2)CN(C)[C@]32C(=O)N(CN3CCOCC3)c3ccccc32)o1 | 21.2 µM | 28.4 µM | 18 µM
3 | Cc1ccc(/C=C2\CCC[C@]3(C2=O)[C@H](c2ccc(C)cc2)CN(C)[C@]32C(=O)N(CN3CCOCC3)c3ccccc32)cc1 | 32.9 µM | 21.7 µM | 13.3 µM
4 | COc1ccc(/C=C2\CCC[C@]3(C2=O)[C@H](c2ccc(OC)cc2)CN(C)[C@]32C(=O)N(CN3CCOCC3)c3ccccc32)cc1 | 58.8 µM | 18.7 µM | 18.5 µM
5 | COc1ccc(/C=C2\CCC[C@]3(C2=O)[C@H](c2ccc(OC)c(OC)c2)CN(C)[C@]32C(=O)N(CN3CCOCC3)c3ccccc32)cc1OC | 32 µM | 6.99 µM | 10.9 µM
6 | CN1C[C@@H](c2ccccc2)[C@@]2(CCC/C(=C\c3ccccc3)C2=O)[C@@]12C(=O)N(CN1CCOCC1)c1ccccc12 | 26.7 µM | 13.3 µM | 14.8 µM
7 | CN1C[C@@H](c2ccc(Cl)cc2Cl)[C@@]2(CCC/C(=C\c3ccc(Cl)cc3Cl)C2=O)[C@@]12C(=O)N(CN1CCOCC1)c1ccccc12 | 21.9 µM | 24.9 µM | 22.3 µM
8 | CN1C[C@@H](c2ccc(F)cc2)[C@@]2(CCC/C(=C\c3ccc(F)cc3)C2=O)[C@@]12C(=O)N(CN1CCOCC1)c1ccccc12 | 19.5 µM | 8.09 µM | 6.96 µM
9 | COc1cccc2c1C(=O)c1c(O)c3c(c(O)c1C2=O)C[C@@](O)(C(=O)CO)C[C@@H]3O[C@H]1C[C@H](N)[C@H](O)[C@H](C)O1 [DOXORUBICIN] | 8.83 µM |  | 7.71 µM
